Results on one compound are retold here after US20130253048A1, “Pharmaceutical Composition for Promoting Osteogenesis Containing Axial-equatorial Aryl-oriented Furofuran-type Lignan, and Pharmaceutical Preparation, Functional Food Product, and Health Food Product Comprising Composition” (ERINA CO., INC., priority 2010, published 2013).

For one assay, the system named is MC3T3-E1 cells. The assay can be described thus: Osteoblast activation, ALP activity in MC3T3-E1. It is filed as cell-based, mouse. As to the method:
MC3T3-E1 cells ((IAA) the Institution of Physical and Chemical Research), osteoblast-like cell line derived from the mouse fetus cranial bone cells, were inoculated into the 96 well plate at 4,000 cells/well. As a medium, the basal medium prepared in the Example 3 supplemented with fargesin at 2 to 80 μM was used. Pre-culture was performed by using the basal medium only under the conditions of 5% CO2 and 37 degree centigrade for 3 days. After that, the conditioned medium was changed to fresh medium with fargesin; the culture was performed under the conditions of 5% CO2 and 37 degree centigrade for 3 days. On the day 4 from the culture start, the conditioned medium was changed to the fresh medium; the culture was further performed under the conditions of 5% CO2 and 37 degree centigrade for 3 days. After the termination of the culture, the following MTT test, measurement of ALP activities, and the staining were performed.
Measurement of the ALP activity, statistical processing of the data, and the observation of differentiated cells were performed as the same way as those in Example 3, except the staining of the osteoclast cells were omitted.

For another assay, the system named is TRACP5b. Put plainly: Serum TRACP5b of OVX mice (bone metabolism marker). It is filed as in vivo, mouse. As to the method:
All obtained blood from the heart under diethyl ether anesthesia at dissection was stored at 4 degree centigrade for 24 hours. Then, the blood was centrifuged at 3,000 rpm (4,000×g) for 15 minutes to separate the sera.
According to the protocol of Mouse TRAP™ Assay (Immuno-diagnostic Systems Ltd, the United of Kingdom), TRACP5b in the obtained sera was determined.

Assay [1] relates to BMCs and UAMS-32 cells co-culture. Put plainly: Differentiation of osteoblast and osteoclast in co-culture (ALP and TRAP activity). It is filed as cell-based, mouse. Particulars: for activity at 2 µM / activity at 6 µM / activity at 20 µM / activity at 60 µM / activity at 80 µM: Mus musculus, 120 h, 5 days co-culture, negative control = 100%. As to the method:
Four-week-old ddY male mice (Japan SLC, Inc.) were killed by the cervical dislocation, and then, the long bones of left and right lower extremities were excised with muscles. All of the muscles were removed from the bones, and the femurs and shinbones were obtained. The both ends of the obtained femurs and shinbones were scraped a little by a little. The cells in the bone morrow were pushed out into the following medium by using a 2.5 ml of syringe with a needle (22G×1¼; Thermo corporation). After that, contaminants were eliminated through a filter ([…] Nylon Cell Strainer; Japan Becton, Dickinson and Company) to obtain more than 2×10^8 cells of BMCs.
Osteoblast-like cells, UAMS-32 cells, were purchased from the Institution of Physical and Chemical Research (Japan).
In order to prepare the basic medium, 10.2 g of α-MEM (powder, Life Technologies Japan Corporation (GIBCO)) was dissolved in 1 L of purified water and 2.2 g/l (w/v) of sodium bicarbonate was added. Then, it was filtered through a sterilized filter of which pore diameter was 0.22 μm (Nihon Millipore K. K). Further, the basic mediums were supplemented with 10% (v/v) fetal bovine serum (FBS) (Sigma, heat-inactivated for 30 minutes at 56° C.).
In this example, 1 μM of PGE2 and 10 nM of Vitamin D3 (both from Wako Pure Chemical Industries, Ltd.) were added to the medium to prepare a co-culture medium. By using the co-culture medium, cell suspensions of BMCs and UAMS-32 obtained as mentioned above were prepared. For the test group, 2 to 80 μM of fargesin was added, and for the negative control group, DMSO was added so as to be 0.3% of the final concentration.
BMCs were plated at the concentration of 2×10^6 cells/well, and UAMS-32 cells were plated at the concentration of 1×10^5 cells/well in each well of the 96 well plates, respectively. Then, the cells were co-cultured in the co-culture medium under the conditions of 5% CO2 and 37 degree centigrade for 5 days. The medium were changed on the 3rd days from the culture start. After cells were fixed as described in below, alkaline phosphatase (ALP) activity was measured as the index of osteoblast differentiation; tartrate-resistant acid phosphatase activity was measured as the index of osteoclast differentiation.
The cells were cultured under the above-mentioned conditions, 10% formalin aqueous solution was added into each well still standing for 10 minutes, and then ethanol was added still standing for further 1 minute to fix the cells. In order to measure TRAP activity, 10 mM sodium tartrate/50 mM citric acid buffer solution containing 1.36 mg of p-nitrophenyl sodium phosphate (Sigma-Aldrich Co. LLC.) (pH 4.6) was prepared as a substrate solution for TRAP. The substrate solution for TRAP was added to the well at the volume of 100 μl/well, and reacted for 15 to 20 minutes at a room temperature. The reaction solution was transferred into another 96 well plate, to which 100 μl/well of 0.1N NaOH was previously added to stop the reaction, and they were measured at absorbance of 405 nm.
50 mM sodium tartrate/0.1 M of sodium acetate buffer (pH 5.0) including 0.1 mg/ml naphthol AS-MX phosphate (sigma N-4875) and 0.6 mg/ml Fast red violet LB salt (both from Sigma-Aldrich Japan Co. LLC.) was prepared as TRAP staining solution. The TRAP staining solution was added to the wells to stain the cells in negative control group till they took on red color under room temperature. After that, the cells were washed with distilled water. The cells stained red and having not less than two nuclei was decided as multinuclear osteoclast, of which number was counted by using the microscope.
After the cells were cultured under the conditions, 100 μl/well of methanol cooled to −20 degree centigrade was added into the cells and stood for further 1 minute to fix the cells. […]

Like-named read-outs stand apart in the source and are kept apart here.

Take `COc1ccc([C@@H]2OC[C@H]3[C@@H]2CO[C@@H]3c2ccc3c(c2)OCO3)cc1OC` [fargesin, Fargesin]: the “ALP stained image of osteoblast-like cells” value in the assay with MC3T3-E1 cells (60 to 80 μM, MC3T3-E1) was “many osteoblast stained in blue were observed”. Moreover, the activity at 2 µM with MC3T3-E1 cells (Mus musculus, 2 μM, MC3T3-E1, negative control = 100) stood at 82.8 ± 8%; in assay [1] (read-out: ALP activity (%)) it was 113 ± 15.7%; in assay [1] (read-out: TRAP activity (%)), 89.5 ± 5.4%. For the same compound, the activity at 6 µM with MC3T3-E1 cells (Mus musculus, 6 μM, MC3T3-E1, negative control = 100) came out at 89.8 ± 9.8%; in assay [1] (read-out: ALP activity (%)), 120 ± 10.1%; in assay [1] (read-out: TRAP activity (%)), 88.7 ± 7.2%. In addition, the activity at 20 µM with MC3T3-E1 cells (Mus musculus, 20 μM, MC3T3-E1, negative control = 100) was 99.8 ± 13.4%; in assay [1] (read-out: ALP activity (%)), 146 ± 14.4%; in assay [1] (read-out: TRAP activity (%)) it was 74.4 ± 8.5%. For the same compound, the activity at 60 µM with MC3T3-E1 cells (Mus musculus, 60 μM, MC3T3-E1, negative control = 100) was 180 ± 31.5%; in assay [1] (read-out: ALP activity (%)), 164 ± 14%; in assay [1] (read-out: TRAP activity (%)), 42.4 ± 7.1%. In addition, the activity at 80 µM in the assay with MC3T3-E1 cells (Mus musculus, 80 μM, MC3T3-E1, negative control = 100) is 167 ± 32.7%; in assay [1] (read-out: ALP activity (%)) it was 199 ± 14.6%; in assay [1] (read-out: TRAP activity (%)) it was 35.7 ± 5.6%. The “level of TRACP5b in the sera” value with TRACP5b (40 mg administration group p.o.) is listed as “significantly decreased”; in the assay on TRACP5b (2, 20, 40 mg/kg/day p.o.), “dose-dependently decreased”. Also, the “cells differentiated to the osteoclast, ALP and TRAP double staining” value in assay [1] (60 to 80 μM, co-culture) is “rarely observed”.
